What was measured:
Assay type in all cases: functional, cell-based
NCI-H460 = experiment: Antiproliferative activity against human NCI-H460 cells assessed as reduction in cell viability measured after 24 hrs by MTT assay; details: NCI-H460, 24 h
MCF7 = experiment: Antiproliferative activity against human MCF7 cells assessed as reduction in cell viability measured after 24 hrs by MTT assay; details: MCF7, 24 h
HeLa = experiment: Antiproliferative activity against human HeLa cells assessed as reduction in cell viability measured after 24 hrs by MTT assay
Raji = experiment: Antiproliferative activity against human Raji cells assessed as reduction in cell viability measured after 24 hrs by MTT assay
A2780S = experiment: Antiproliferative activity against human A2780S cells assessed as reduction in cell viability measured after 24 hrs by MTT assay

Compound	IC50 (NCI-H460)	IC50 (MCF7)	IC50 (HeLa)	IC50 (Raji)	IC50 (A2780S)
c1ccc(Oc2cccc(CNc3cc4c(cn3)[nH]c3ccccc34)c2)cc1	62 nM	49 nM	51 nM	31 nM	45 nM
CSc1ccc(Oc2cccc(CNc3cc4c(cn3)[nH]c3ccccc34)c2)cc1	> 500 nM	> 500 nM	> 500 nM	> 500 nM	> 500 nM
CC(=O)Nc1ccc(Oc2cccc(CNc3cc4c(cn3)[nH]c3ccccc34)c2)cc1	31 nM	27 nM	67 nM	15 nM	11 nM
c1ccc2c(CNc3cc4c(cn3)[nH]c3ccccc34)cccc2c1	> 500 nM	> 500 nM	> 500 nM	> 500 nM	> 500 nM
c1cc(CNc2cc3c(cn2)[nH]c2ccccc23)cc(OC2CCC2)c1	> 500 nM	> 500 nM	> 500 nM	> 500 nM	> 500 nM
CC(C)Oc1cccc(CNc2cc3c(cn2)[nH]c2ccccc23)c1	> 500 nM	> 500 nM	> 500 nM	> 500 nM	> 500 nM
Fc1ccccc1Oc1cccc(CNc2cc3c(cn2)[nH]c2ccccc23)c1	105 nM	93 nM	59 nM	16 nM	73 nM
CC(C)=CCOc1cccc(CNc2cc3c(cn2)[nH]c2ccccc23)c1	> 500 nM	> 500 nM	> 500 nM	> 500 nM	> 500 nM
c1csc(CNc2cc3c(cn2)[nH]c2ccccc23)c1	> 500 nM	424 nM	412 nM	257 nM	> 500 nM
c1cc(CNc2cc3c(cn2)[nH]c2ccccc23)cc(Oc2ccc3ncccc3c2)c1	234 nM	64 nM	93 nM	119 nM	78 nM
Cc1cccc(Oc2cccc(CNc3cc4c(cn3)[nH]c3ccccc34)c2)c1	44 nM	47 nM	41 nM	29 nM	44 nM
Clc1cccc(Oc2cccc(CNc3cc4c(cn3)[nH]c3ccccc34)c2)c1	47 nM	39 nM	43 nM	32 nM	60 nM
COc1ccc(Oc2cccc(CNc3cc4c(cn3)[nH]c3ccccc34)c2)cc1OC	> 500 nM	432 nM	266 nM	383 nM	264 nM
CC(C)COc1cccc(CNc2cc3c(cn2)[nH]c2ccccc23)c1	> 500 nM	> 500 nM	> 500 nM	> 500 nM	> 500 nM
Cn1cccc1CNc1cc2c(cn1)[nH]c1ccccc12	500 nM	> 500 nM	> 500 nM	> 500 nM	> 500 nM
c1ccc(-c2ccc(Oc3cccc(CNc4cc5c(cn4)[nH]c4ccccc45)c3)cc2)cc1	> 500 nM	> 500 nM	> 500 nM	> 500 nM	> 500 nM
CC(C)CNc1cc2c(cn1)[nH]c1ccccc12	> 500 nM	> 500 nM	> 500 nM	> 500 nM	> 500 nM
N#Cc1cccc(Oc2cccc(CNc3cc4c(cn3)[nH]c3ccccc34)c2)c1	> 500 nM	> 500 nM	500 nM	> 500 nM	> 500 nM
CC(C)CCOc1cccc(CNc2cc3c(cn2)[nH]c2ccccc23)c1	> 500 nM	> 500 nM	> 500 nM	> 500 nM	> 500 nM
c1ccc(-c2ccc(CNc3cc4c(cn3)[nH]c3ccccc34)cc2)cc1	> 500 nM	> 500 nM	> 500 nM	> 500 nM	> 500 nM
COc1cc(Oc2cccc(CNc3cc4c(cn3)[nH]c3ccccc34)c2)cc(OC)c1OC	> 500 nM	> 500 nM	> 500 nM	> 500 nM	> 500 nM
CC(C)=CCNc1cc2c(cn1)[nH]c1ccccc12	> 500 nM	> 500 nM	> 500 nM	382 nM	> 500 nM
CC(=O)Nc1cccc(Oc2cccc(CNc3cc4c(cn3)[nH]c3ccccc34)c2)c1	74 nM	76 nM	83 nM	45 nM	58 nM

Reference: ChEMBL document CHEMBL5042535, “Structure-Based Design and Synthesis of N-Substituted 3-Amino-β-Carboline Derivatives as Potent αβ-Tubulin Degradation Agents” (J Med Chem, 2022)
